# Measurements from ChEMBL document CHEMBL1201862, “PubChem BioAssay data set” (2004).
#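 Cultured in 96-well plates, cells were exposed to test compound for 48 hours across five concentrations. GI50: concentration for 50% inhibition of growth.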 Active and inactive are the calls of the source. Cut-off read from the data, not from the text of the source: active = GI50 up to about 1.1 µM and inactive = higher.
# Assays:
# Assay in all cases: DTP human tumour cell line panel, 48 h
# [1] = test system: OVCAR-5
# [2] = test system: NCI-H522
# [3] = test system: HOP-92
# [4] = test system: LOX IMVI
# [5] = test system: KM12
# [6] = test system: PC-3
# [7] = test system: COLO 205
# [8] = test system: MOLT-4
# [9] = test system: RPMI-8226
# [10] = test system: MDA-MB-435
# [11] = test system: TK-10
# [12] = test system: IGROV-1
# [13] = test system: HOP-62
# [14] = test system: Malme-3M
# [15] = test system: Hs-578T
# [16] = test system: SN12C
# [17] = test system: T47D
# [18] = test system: HT-29
# [19] = test system: 786-0
# [20] = test system: HCT-15
SMILES,GI50 [1],GI50 [2],GI50 [3],GI50 [4],GI50 [5],GI50 [6],GI50 [7],GI50 [8],GI50 [9],GI50 [10],GI50 [11],GI50 [12],GI50 [13],GI50 [14],GI50 [15],GI50 [16],GI50 [17],GI50 [18],GI50 [19],GI50 [20]
Cc1coc2c1CC1(C)C(CCC(O)C1C)C2 (stereo not given),> 100 µM (inactive),> 100 µM (inactive),> 100 µM (inactive),> 100 µM (inactive),> 100 µM (inactive),> 100 µM (inactive),> 100 µM (inactive),> 100 µM (inactive),> 100 µM (inactive),> 100 µM (inactive),> 100 µM (inactive),> 100 µM (inactive),> 100 µM (inactive),> 100 µM (inactive),> 100 µM (inactive),> 100 µM (inactive),> 100 µM (inactive),> 100 µM (inactive),> 100 µM (inactive),> 100 µM
O=c1oc2ccccc2c(Nc2ccc3c(c2)Oc2ccccc2O3)c1[N+](=O)[O-],35.6 µM (inactive),24.1 µM (inactive),16.7 µM (inactive),36.9 µM (inactive),59.2 µM (inactive),17.7 µM (inactive),> 100 µM (inactive),43 µM (inactive),59.6 µM (inactive),54.3 µM (inactive),21.2 µM (inactive),19 µM (inactive),34.9 µM (inactive),23 µM (inactive),30.1 µM (inactive),35.8 µM (inactive),28.7 µM (inactive),65.2 µM (inactive),18.9 µM (inactive),44.1 µM
COC(=O)c1ccccc1C1CN=NC12Cc1ccccc1C2=O (stereo not given),> 100 µM (inactive),59.2 µM (inactive),34 µM (inactive),45.4 µM (inactive),58.1 µM (inactive),34 µM (inactive),> 100 µM (inactive),41.7 µM (inactive),48 µM (inactive),42.6 µM (inactive),> 100 µM (inactive),> 100 µM (inactive),> 100 µM (inactive),74.5 µM (inactive),50.7 µM (inactive),> 100 µM (inactive),41.3 µM (inactive),> 100 µM (inactive),> 100 µM (inactive),> 100 µM
Cc1nnc(N)nc1/C=C\c1ccc(Cl)cc1Cl,42.5 µM (inactive),24.2 µM (inactive),39.2 µM (inactive),40.2 µM (inactive),18.6 µM (inactive),16.9 µM (inactive),20.9 µM (inactive),41.4 µM (inactive),45.4 µM (inactive),33.5 µM (inactive),> 100 µM (inactive),16.3 µM (inactive),20.3 µM (inactive),23.8 µM (inactive),29.2 µM (inactive),61.5 µM (inactive),55.3 µM (inactive),20.6 µM (inactive),40.7 µM (inactive),23.3 µM
CN(C)c1ccc(/C=C(\NC(=O)c2ccccc2)c2nn(C)c(=O)o2)cc1,> 100 µM (inactive),17.6 µM (inactive),> 100 µM (inactive),60.1 µM (inactive),37.6 µM (inactive),> 100 µM (inactive),> 100 µM (inactive),35.3 µM (inactive),32 µM (inactive),69 µM (inactive),> 100 µM (inactive),58.6 µM (inactive),18.1 µM (inactive),78.2 µM (inactive),62.1 µM (inactive),> 100 µM (inactive),> 100 µM (inactive),90.8 µM (inactive),41.5 µM (inactive),> 100 µM
CN(C)CCOC1(CC2CCCCC2)CCC(C(C)(C)C)CC1 (stereo not given),5.53 µM (inactive),1.56 µM (inactive),5.73 µM (inactive),2.73 µM (inactive),4.27 µM (inactive),4.1 µM (inactive),2.87 µM (inactive),2.49 µM (inactive),2.02 µM (inactive),4.74 µM (inactive),12.8 µM (inactive),8.71 µM (inactive),4.04 µM (inactive),2.83 µM (inactive),6.78 µM (inactive),6.46 µM (inactive),3.34 µM (inactive),2.43 µM (inactive),2.48 µM (inactive),3.75 µM
N#Cc1c(N2CCCC2)ncn(Cc2ccccc2)c1=S,> 100 µM (inactive),> 90.4 µM (inactive),22.4 µM (inactive),> 100 µM (inactive),> 100 µM (inactive),71.3 µM (inactive),> 100 µM (inactive),> 100 µM (inactive),> 100 µM (inactive),> 100 µM (inactive),> 100 µM (inactive),> 87.9 µM (inactive),40.3 µM (inactive),> 87.9 µM (inactive),> 54.8 µM (inactive),> 100 µM (inactive),> 86.7 µM (inactive),> 100 µM (inactive),36.2 µM (inactive),> 100 µM
Cc1ccc2c(c1C)-c1c(ccc(C)c1C)C(=O)C2=O,1.55 µM (inactive),0.148 µM (active),0.374 µM (active),0.304 µM (active),0.165 µM (active),0.265 µM (active),2.02 µM (inactive),0.2 µM (active),0.193 µM (active),0.21 µM (active),1.18 µM (inactive),0.357 µM (active),1.39 µM (inactive),0.598 µM (active),0.342 µM (active),0.817 µM (active),1.81 µM (inactive),2.36 µM (inactive),0.358 µM (active),0.292 µM
Cc1ccc(/N=C2\SC(=NN(C)C)S\C2=N/c2ccc(C)cc2)cc1,> 100 µM (inactive),4.71 µM (inactive),> 100 µM (inactive),> 100 µM (inactive),> 100 µM (inactive),> 100 µM (inactive),> 100 µM (inactive),> 100 µM (inactive),> 100 µM (inactive),> 100 µM (inactive),> 100 µM (inactive),> 100 µM (inactive),> 100 µM (inactive),> 100 µM (inactive),> 100 µM (inactive),> 100 µM (inactive),> 100 µM (inactive),> 100 µM (inactive),> 100 µM (inactive),> 100 µM
